From patent publication US12729377B2, “RNAi agents and compositions for inhibiting expression of angiopoietin-like 3 (ANGPTL3), and methods of use” (Arrowhead Pharmaceuticals, Inc., priority 2017, dated 2026)
In the oligonucleotide strings, read from the 5' end, every base follows the letter of its sugar. An asterisk marks phosphorothioate; unmarked linkages are phosphodiester. Other units and linkages are bracketed, terminal groups are in braces. A string of capitals states the bases alone. {NAG37} = tridentate N-acetyl-galactosamine targeting ligand, structure (NAG37)s; [invAb] = inverted abasic unit; m = 2'-O-methyl; f = 2'-fluoro

Experiments:
ANGPTL3 protein = assay: Example 4: serum ANGPTL3 protein by ELISA in mice; type: in vivo, C57bl/6 mice; details: 1.0 mg/kg single subcutaneous dose on day 1, serum, female C57bl/6 mice
Description: (§1) To assess the in vivo activity of ANGPTL3 RNAi agents that are designed to target additional positions on the ANGPTL3 gene, six- to eight-week-old female C57bl/6 mice were used. Pre-dose serum samples were taken at day −1 after a four hour fast. At day 1, each mouse was given a single subcutaneous administration of 200 μl containing either 1 mg/kg (mpk) or 0.5 mg/kg (mpk) of an ANGPTL3 RNAi agent in D5W (dextrose in 5% water), or control (D5W) with no RNAi agent, according to the dosing groups recited in Table 17.
(§2) Each of the RNAi agents included a modified sequence and an N-acetyl-galactosamine-containing targeting ligand conjugated to the 5′ terminal end of the sense strand. (See Tables 3, 4, and 5 for modified sequences and targeting ligand structures). The injections were performed between the skin and muscle (i.e. subcutaneous injections) into the loose skin over the neck and shoulder area. Three (3) mice in each group were tested (n=3). Serum was collected on days 8, 15, 22, 29, and day 43 (Groups 1-3, 9, and 11-13 only). Mice were fasted for four hours prior to each collection. ANGPTL3 protein levels in serum were measured by ELISA assay (R&D Systems), according to the manufacturer's recommendations. Triglycerides, high-density lipoprotein (HDL), and total cholesterol in serum were measured on a Cobas® Integra 400 (Roche Diagnostics), according to the manufacturer's recommendations.
(§3) The ANGPTL3 protein levels, triglyceride levels, HDL levels, and total cholesterol levels for each animal were normalized. For normalization, the level of ANGPTL3 protein, triglyceride, HDL, and total cholesterol, respectively, for each animal at a time point, was divided by the pre-treatment level of expression in that animal (in this case at day −1) to determine the ratio of expression “normalized to pre-treatment.” Expression at a specific time point was then normalized to the D5W control group by dividing the “normalized to pre-treatment” ratio for an individual animal by the mean “normalized to pretreatment” ratio of all mice in the D5W control group.

ANGPTL3 gene [1] = assay: Example 4: serum triglycerides in mice; type: in vivo
Description: as §1, §2, §3

ANGPTL3 gene [2] = assay: Example 4: serum total cholesterol in mice; type: in vivo, C57bl/6 mice
Description: as §1, §2, §3

ANGPTL3 gene [3] = assay: Example 7: serum triglycerides in mice; type: in vivo, C57bl/6 mice; design: key: ratio: (level/pre-treatment day -1 level) ÷ mean of D5W control group
Procedure, shortened: (§4)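 Female C57bl/6 mice (6–8 weeks, n=3) received a single subcutaneous dose of 0.5 mg/kg GalNAc-conjugated RNAi agent or D5W vehicle. Serum was taken after a 4 h fast at day −1 and days 8, 15, 22 and 29. ANGPTL3 was measured by ELISA and lipids by clinical analyzer, each normalised to the animal's pre-dose level and then to the D5W group mean.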

ANGPTL3 gene [4] = assay: Example 7: serum total cholesterol in mice; type: in vivo, C57bl/6 mice; design: key: ratio: (level/pre-treatment day -1 level) ÷ mean of D5W control group
Procedure, shortened: as §4

ANGPTL3 gene [5] = assay: Example 7: serum LDL in mice; type: in vivo; design: key: ratio: (level/pre-treatment day -1 level) ÷ mean of D5W control group; details: 0.5 mg/kg single SC injection day 1, female C57bl/6 mice, n=3, ratio to D5W control
Procedure, shortened: as §4

[6] = Day 8, 0.5 mg/kg single SC injection on day 1, n=3
[7] = Day 15, 0.5 mg/kg single SC injection on day 1, n=3
[8] = Day 22, 0.5 mg/kg single SC injection on day 1, n=3
[9] = Day 29, 0.5 mg/kg single SC injection on day 1, n=3

Substance: AD05418: RNAi agent duplex: antisense AM07159-AS, sense AM07158-SS (antisense mU*fU*mU*fGmAfAmUfUmAfAmUfGmUfCmCfAmUfGmGfG*mU; sense {NAG37}*[invAb]*mAmCmCmCmAmUmGmGfAfCfAmUmUmAmAmUmUmCmAmAmA*[invAb])
- Avg ANGPTL3 (Average ANGPTL3 Protein Normalized to Pre-Treatment and Control) (ANGPTL3 protein; Day 8): 0.258
- Avg ANGPTL3 (Average ANGPTL3 Protein Normalized to Pre-Treatment and Control) (ANGPTL3 protein; Day 15): 0.270
- Avg ANGPTL3 (Average ANGPTL3 Protein Normalized to Pre-Treatment and Control) (ANGPTL3 protein; Day 22): 0.387
- Avg ANGPTL3 (Average ANGPTL3 Protein Normalized to Pre-Treatment and Control) (ANGPTL3 protein; Day 29): 0.407
- Avg ANGPTL3 (Average ANGPTL3 Protein Normalized to Pre-Treatment and Control) (ANGPTL3 protein; Day 43): 0.847
- Avg TG (Average Triglycerides Normalized to Pre-Treatment and Control) (ANGPTL3 gene [1]; Day 8, 1.0 mg/kg single subcutaneous dose on day 1, female C57bl/6 mice): 0.858
- Avg TG (Average Triglycerides Normalized to Pre-Treatment and Control) (ANGPTL3 gene [1]; Day 15, 1.0 mg/kg single subcutaneous dose on day 1, female C57bl/6 mice): 1.065
- Avg TG (Average Triglycerides Normalized to Pre-Treatment and Control) (ANGPTL3 gene [1]; Day 22, 1.0 mg/kg single subcutaneous dose on day 1, female C57bl/6 mice): 1.079
- Avg TG (Average Triglycerides Normalized to Pre-Treatment and Control) (ANGPTL3 gene [1]; Day 29, 1.0 mg/kg single subcutaneous dose on day 1, female C57bl/6 mice): 0.980
- Avg TG (Average Triglycerides Normalized to Pre-Treatment and Control) (ANGPTL3 gene [1]; Day 43, 1.0 mg/kg single subcutaneous dose on day 1, female C57bl/6 mice): 0.892
- Avg Total Chol, normalized to pre-treatment and control (ANGPTL3 gene [2]; Day 8, 1.0 mg/kg single SC injection on day 1, n=3): 0.818
- Avg Total Chol, normalized to pre-treatment and control (ANGPTL3 gene [2]; Day 15, 1.0 mg/kg single SC injection on day 1, n=3): 0.761
- Avg Total Chol, normalized to pre-treatment and control (ANGPTL3 gene [2]; Day 22, 1.0 mg/kg single SC injection on day 1, n=3): 0.915
- Avg Total Chol, normalized to pre-treatment and control (ANGPTL3 gene [2]; Day 29, 1.0 mg/kg single SC injection on day 1, n=3): 0.853
- Avg Total Chol, normalized to pre-treatment and control (ANGPTL3 gene [2]; Day 43, 1.0 mg/kg single SC injection on day 1, n=3): 1.002
- Avg TG, normalized to pre-treatment and control (ANGPTL3 gene [3]; [6]): 0.830
- Avg TG, normalized to pre-treatment and control (ANGPTL3 gene [3]; [7]): 0.655
- Avg TG, normalized to pre-treatment and control (ANGPTL3 gene [3]; [8]): 0.815
- Avg TG, normalized to pre-treatment and control (ANGPTL3 gene [3]; [9]): 0.586
- Avg Total Chol, normalized to pre-treatment and control (ANGPTL3 gene [4]; [6]): 0.950
- Avg Total Chol, normalized to pre-treatment and control (ANGPTL3 gene [4]; [7]): 0.878
- Avg Total Chol, normalized to pre-treatment and control (ANGPTL3 gene [4]; [8]): 0.926
- Avg Total Chol, normalized to pre-treatment and control (ANGPTL3 gene [4]; [9]): 1.023
- Avg LDL, normalized to pre-treatment and control (ANGPTL3 gene [5]; Day 8): 1.160
- Avg LDL, normalized to pre-treatment and control (ANGPTL3 gene [5]; Day 15): 0.928
- Avg LDL, normalized to pre-treatment and control (ANGPTL3 gene [5]; Day 22): 0.950
- Avg LDL, normalized to pre-treatment and control (ANGPTL3 gene [5]; Day 29): 1.131
